Reference: paper PMC7914897, “Cytotoxic Potential of a-Azepano- and 3-Amino-3,4-SeCo-Triterpenoids” (International Journal of Molecular Sciences, 2021)
Read-outs that look alike come from different tables or passages of the source.

Legend:
[1] = tested on: NIH 3T3 (non-malignant mouse fibroblasts); assay: SRB cytotoxicity assay, 72 h; type: cell-based; conditions: Mus musculus, NIH3T3; NIH 3T3, 72 h, cut-off 30 µM; read-out: EC50
Description: (§1) The cytotoxicity of compounds 1–20 was evaluated by means of a colorimetric sulforhodamine B (SRB) assay. For all compounds, the EC50 values were determined for the human tumor cell lines A375 (malignant melanoma), HT29 (colorectal carcinoma), MCF-7 (breast carcinoma), A2780 (ovarian carcinoma), FaDu (hypopharyngeal carcinoma), and NIH 3T3 (non-malignant mouse fibroblasts).
(§2) In short, exponentially growing cells were seeded into 96-well plates on day 0 at the appropriate cell densities to prevent confluence of the cells during the period of experiment. After 24 h, the cells were treated with serial dilutions of the compounds (0–30 µM) for 72 h. The final concentration of DMSO never exceeded 0.5%, which was non-toxic to the cells. After a 72 h treatment, the supernatant medium from the 96-well plates was discarded, and the cells were fixed with 10% TCA. For a thorough fixation, the plates were allowed to rest at 4 °C. After fixation, the cells were washed in a strip washer. The washing was done four times with water using alternate dispensing and aspiration procedures. The plates were then dyed with 100 µL of 0.4% SRB for about 20 min. After dying, the plates were washed with 1% acetic acid to remove the excess of the dye and allowed to air-dry overnight. Tris base solution (200 µL, 10 mM) was added to each well and absorbance was measured at λ = 570 nm (using a 96 well plate reader, Tecan Spectra, Crailsheim, Germany). The percentages of surviving cells relative to untreated controls were determined.

[2] = tested on: A2780 (ovarian carcinoma); assay: SRB cytotoxicity assay, 72 h; type: cell-based, human; conditions: Homo sapiens; A2780, 72 h, cut-off 30 µM; read-out: EC50
Description: as §1, §2

[3] = tested on: A375 (malignant melanoma); assay: SRB cytotoxicity assay, 72 h; type: cell-based, human; conditions: A375, 72 h, cut-off 30 µM, read-out: EC50
Description: as §1, §2

MCF-7 (breast carcinoma) = assay: SRB cytotoxicity assay, 72 h; type: cell-based, human; conditions: Homo sapiens, MCF7; MCF-7, 72 h, cut-off 30 µM; read-out: EC50
Description: as §1, §2

[4] = tested on: HT29 (colorectal carcinoma); assay: SRB cytotoxicity assay, 72 h; type: cell-based, human; conditions: Homo sapiens, HT-29; HT29, 72 h, cut-off 30 µM; read-out: EC50
Description: as §1, §2

[5] = tested on: FaDu (hypopharyngeal carcinoma); assay: SRB cytotoxicity assay, 72 h; type: cell-based, human; conditions: Homo sapiens, cut-off 30 µM, read-out: EC50
Description: as §1, §2

[6] = tested on: panel of approximately 60 cancer cell lines; assay: NCI-60 screen (SRB, 48 h), full panel; conditions: for activity at 10 µM: Homo sapiens, 48 h
SR (Leukemia) = assay: NCI-60 screen (SRB, 48 h); type: cell-based; conditions: 1 dose 10 µM
SF-539 (CNS cancer) = tested on: SF-539 (CNS cancer); set-up: method as in earlier work; conditions: cited from earlier work
MDA-MB-435 (Melanoma) = tested on: MDA-MB-435 (Melanoma); set-up: method as in earlier work; conditions: cited from earlier work
[7] = tested on: NCI-H23 (NSC lung cancer); set-up: method as in earlier work; conditions: cited from earlier work
[8] = tested on: NCI-H226 (NSC lung cancer); set-up: method as in earlier work; conditions: cited from earlier work
MCF7 (Breast cancer) = tested on: MCF7 (Breast cancer); set-up: method as in earlier work; conditions: cited from earlier work
CAKI-1 (Renal cancer) = tested on: CAKI-1 (Renal cancer); set-up: method as in earlier work; conditions: cited from earlier work
[9] = tested on: NCI-H460 (NSC lung cancer); set-up: method as in earlier work; conditions: cited from earlier work
OVCAR-3 (Ovarian cancer) = tested on: OVCAR-3 (Ovarian cancer); set-up: method as in earlier work; conditions: cited from earlier work
RPMI-8226 (Leukemia) = tested on: RPMI-8226 (Leukemia); set-up: method as in earlier work; conditions: cited from earlier work
[10] = tested on: NCI-H522 (NSC lung cancer); set-up: method as in earlier work; conditions: cited from earlier work
MALME-3M (Melanoma) = tested on: MALME-3M (Melanoma); set-up: method as in earlier work; conditions: cited from earlier work
SNB-75 (CNS cancer) = tested on: SNB-75 (CNS cancer); set-up: method as in earlier work; conditions: cited from earlier work
[11] = tested on: MDA-MB-31/ATCC (Breast cancer); set-up: method as in earlier work; conditions: cited from earlier work
HOP-62 (NSC lung cancer) = tested on: HOP-62 (NSC lung cancer); set-up: method as in earlier work; conditions: cited from earlier work
HCC-2998 (Colon cancer) = tested on: HCC-2998 (Colon cancer); set-up: method as in earlier work; conditions: cited from earlier work
HOP-92 (NSC lung cancer) = tested on: HOP-92 (NSC lung cancer); set-up: method as in earlier work; conditions: cited from earlier work
[12] = tested on: panel of approximately 60 cancer cell lines; set-up: method as in earlier work; conditions: standard drugs; read-out: GI50 MG_MID60; cited from earlier work
HT29 (Colon cancer) = assay: NCI-60 screen (SRB, 48 h); conditions: HT29, 1 dose 10 µM

C=C(C)[C@@H]1CC[C@]2(C(=O)NC3CCCCC3)CC[C@]3(C)[C@H](CC[C@@H]4[C@@]5(C)CCCNC(C)(C)[C@@H]5CC[C@]43C)[C@@H]12 [Compound 10]
EC50 [1]: 1500 ± 200 nM | EC50 [2]: 2270 ± 400 nM | EC50 ([3]; Homo sapiens, A-375, 72 h): 2180 ± 200 nM | EC50 (MCF-7 (breast carcinoma)): 1900 ± 100 nM | EC50 [4]: 980 ± 100 nM | EC50 [5]: 2040 ± 100 nM

CC1(C)CC[C@]2(C(=O)NC(CO)Cc3ccccc3)CC[C@]3(C)C(=CC[C@@H]4[C@@]5(C)CCCNC(C)(C)[C@@H]5CC[C@]43C)[C@@H]2C1 (some centres unmarked) [Compound 13]
EC50 [1]: 3080 ± 300 nM | Positive Cytostatic Effect (cell lines with percent growth 0 to 50 / total) ([6]; 1 dose 10 µM): 10/60 | Positive Cytotoxic Effect (cell lines with percent growth < 0 / total) ([6]; 1 dose 10 µM): 1/60 | number of cancer cell lines the compound was active against ([6]; 1 dose 10 µM): 6 cell lines | activity at 10 µM ([6]; read-out: Mean Growth, %): 74.9% | activity at 10 µM ([6]; read-out: Range of Growth, %): -5.95 to 107% | Growth % of the Most Sensitive Cell Lines (SR (Leukemia)): −5.95% | EC50 [2]: 4150 ± 200 nM | EC50 ([3]; Homo sapiens, A-375, 72 h): 3080 ± 100 nM | EC50 (MCF-7 (breast carcinoma)): 2820 ± 300 nM | EC50 [4]: 2070 ± 100 nM | EC50 [5]: 3790 ± 300 nM

O=c1[nH]cc(F)c(=O)[nH]1 [Compound 5-FU, 5-fluorouracil]
GI50 (SF-539 (CNS cancer)): 60 nM | GI50 (MDA-MB-435 (Melanoma)): 70 nM | GI50 [7]: 330 nM | GI50 [8]: 54700 nM | GI50 (MCF7 (Breast cancer)): 70 nM | GI50 (CAKI-1 (Renal cancer)): 70 nM | GI50 [9]: 50 nM | GI50 (OVCAR-3 (Ovarian cancer)): 10 nM | GI50 (RPMI-8226 (Leukemia)): 40 nM | GI50 [10]: 7270 nM | GI50 (MALME-3M (Melanoma)): 50 nM | GI50 (SNB-75 (CNS cancer)): 78700 nM | GI50 [11]: 6600 nM | GI50 (HOP-62 (NSC lung cancer)): 390 nM | GI50 (HCC-2998 (Colon cancer)): 50 nM | GI50 (HOP-92 (NSC lung cancer)): 77900 nM | GI50 [12]: 6970 nM

CC(=O)[C@@H]1CC[C@]2(CO)CC[C@]3(C)[C@H](CC[C@@H]4[C@@]5(C)CCCNC(C)(C)[C@@H]5CC[C@]43C)[C@@H]12 [Compound 2, azepanomessagenin]
Growth % of the Most Sensitive Cell Lines (HT29 (Colon cancer)): 68.07% | EC50 [1]: 8030 ± 1400 nM | Positive Cytostatic Effect (cell lines with percent growth 0 to 50 / total) ([6]; 1 dose 10 µM): 0/59 | number of cancer cell lines the compound was active against ([6]; 1 dose 10 µM): did not show antiproliferative activity | activity at 10 µM ([6]; read-out: Mean Growth, %): 99.2% | activity at 10 µM ([6]; read-out: Range of Growth, %): 68.1 to 136% | EC50 [2]: 7710 ± 400 nM | EC50 [3]: 7820 ± 300 nM | EC50 ([3]; Homo sapiens, A-375, 72 h): 7920 nM | EC50 (MCF-7 (breast carcinoma)): 5780 ± 700 nM | EC50 [4]: 6320 ± 400 nM | EC50 [5]: 6210 ± 1200 nM
